Earlier results as cited in patent US9655910B2, “Compositions and methods for treating addiction” (BODYBIO INC., priority 2014, dated 2017).

What was measured:
CB1 cannabinoid receptor = CB1 cannabinoid receptor (Rattus norvegicus, UniProt P20272)
CB2 receptor = CB2 receptor (Homo sapiens, UniProt P34972); settings: compared with CB1
CB2 receptor, sequence (P34972 whole entry): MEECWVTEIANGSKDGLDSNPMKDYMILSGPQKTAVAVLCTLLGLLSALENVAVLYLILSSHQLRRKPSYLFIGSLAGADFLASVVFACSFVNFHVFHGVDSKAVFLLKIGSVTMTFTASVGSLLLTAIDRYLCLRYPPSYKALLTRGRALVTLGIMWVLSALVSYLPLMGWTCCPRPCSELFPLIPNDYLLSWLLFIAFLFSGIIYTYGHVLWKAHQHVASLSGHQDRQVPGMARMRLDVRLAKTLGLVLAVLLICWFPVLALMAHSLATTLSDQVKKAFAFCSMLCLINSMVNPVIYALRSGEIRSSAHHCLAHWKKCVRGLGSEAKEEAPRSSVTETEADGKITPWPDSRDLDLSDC

CB1 cannabinoid receptor, sequence (P20272 whole entry): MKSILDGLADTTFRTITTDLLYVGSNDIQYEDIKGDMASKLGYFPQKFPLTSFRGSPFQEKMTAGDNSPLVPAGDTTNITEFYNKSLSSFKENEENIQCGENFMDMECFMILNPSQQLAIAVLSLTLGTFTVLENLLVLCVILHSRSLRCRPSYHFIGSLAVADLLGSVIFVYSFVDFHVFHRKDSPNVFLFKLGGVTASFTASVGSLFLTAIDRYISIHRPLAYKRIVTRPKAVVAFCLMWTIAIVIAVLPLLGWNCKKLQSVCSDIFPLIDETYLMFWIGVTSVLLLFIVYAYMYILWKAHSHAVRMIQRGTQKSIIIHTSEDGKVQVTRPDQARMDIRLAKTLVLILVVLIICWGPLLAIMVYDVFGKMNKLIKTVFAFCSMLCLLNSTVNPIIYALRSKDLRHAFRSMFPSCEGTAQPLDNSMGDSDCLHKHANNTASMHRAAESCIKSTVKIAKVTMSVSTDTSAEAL

In the case of CCCCCC=CCC=CCC=CCC=CCCCCOC(CO)CO [Noladin ether, 2-arachidonyl glyceryl ether], the Ki (CB1 cannabinoid receptor) is listed as 21.2 nM, the “binding to the CB2 receptor” value (CB2 receptor) is listed as “only weakly” and the “effects caused in mice” value (mice) is listed as “sedation, hypothermia, intestinal immobility, and mild antinociception”.
